Measurements as given in patent US8192962B2, “Processes for detecting toxic substances” (Daikin Industries, Ltd., priority 2001, dated 2012).

System: Genes belonging to other category
Assay: DNA chip mRNA expression in yeast, genes belonging to other category (Table 9)
Format: cell-based, Saccharomyces cerevisiae S288C
Protocol: Yeast (Saccharomyces cerevisiae S288C (α SUC2mal mel gap2 CUP1)) were incubated at 25° C. on YPD medium (yeast extract 1%, polypepton 2%, glucose 2%). One of toxic chemical substances was added to the cells at logarithmic growth phase, and the cells were further incubated for two hours. Cells were cultured without any chemical substance in the same condition, and were used as control. Concentrations of the chemical substances were defined to inhibit the growth of the yeast but not lead to death.
After completion of the incubation, the culture was centrifuged to collect the cells. To the cells, sodium acetate buffer (50 mM sodium acetate, 10 mM EDTA, 1% SDS) was added, and the mixture was shaken at 65° C. for five minutes, followed by returning to room temperature, and obtaining the supernatant, of which the procedures were repeated two times. To the supernatant, ½ amount of a solution of phenol/chloroform was added, and the mixture was centrifuged to give a supernatant, which was added with an equal amount of chloroform, and the mixture was centrifuged to give a supernatant. To the supernatant, an equal amount of isopropanol containing 0.3 M sodium acetate was added, and the mixture was allowed to stand at room temperature for 30 minutes, after which the mixture was centrifuged to give a sediment of the whole RNAs. Seventy % ethanol was added to the sediment, and the mixture was again centrifuged to give a sediment, which was then dried and dissolved in water. mRNA was isolated from the whole RNAs as followings. In view of the fact that a poly A chain is attached to the 3′ terminus of mRNA, a polynucleotide having a poly T structure which was immobilized on the surface of latex beads was used to trap the mRNA, and then the mRNA was washed and eluted with spine column (Oligotex-dT30<Super>mRNA Purification Kit, Takara). Reverse transcription of the mRNA was conducted with a reverse transcriptase (Super Script II Reverse Transcriptase; catalogue No. 18064-014, GibcoBRL) using fluorescence-labeled nucleotides to give cDNAs that were introduced with Cy3-dUTP or Cy5-dUTP during the reverse transcription.
The labeled cDNAs were dissolved in TE buffer (10mM Tris-HCl/1 mM EDTA, pH8.0), and the solution was dropped on the DNA chip containing the whole genes of yeast (DNA Chip Research Inc. Japan) so that the cDNAs were hybridized on the DNA chip at 65° C. for over 12 hours. The fluoresces intensity of the DNA chip was read with a scanner, and the ratio relative to the fluorescence intensity resulting from the absence of chemical substance was estimated as the following, which is shown in Tables 1 to 9: […]

C[S+](C)[O-] [(15), dimethylsulfoxide]
The level of expressed mRNA in the presence of chemical substance/The level of expressed mRNA in the absence of chemical substance (yeast gene YKL190W): 1.4 | The level of expressed mRNA in the presence of chemical substance/The level of expressed mRNA in the absence of chemical substance (yeast gene YKR014C): 1.4 | The level of expressed mRNA in the presence of chemical substance/The level of expressed mRNA in the absence of chemical substance (yeast gene YLR090W): 0.8 | The level of expressed mRNA in the presence of chemical substance/The level of expressed mRNA in the absence of chemical substance (yeast gene YLR093C): 0.9 | The level of expressed mRNA in the presence of chemical substance/The level of expressed mRNA in the absence of chemical substance (yeast gene YLR118C): 0.8 | The level of expressed mRNA in the presence of chemical substance/The level of expressed mRNA in the absence of chemical substance (yeast gene YLR120C): 2.7 | The level of expressed mRNA in the presence of chemical substance/The level of expressed mRNA in the absence of chemical substance (yeast gene YLR178C): 2.3 | The level of expressed mRNA in the presence of chemical substance/The level of expressed mRNA in the absence of chemical substance (yeast gene YLR250W): 2.6 | The level of expressed mRNA in the presence of chemical substance/The level of expressed mRNA in the absence of chemical substance (yeast gene YLR251W): 0.8 | The level of expressed mRNA in the presence of chemical substance/The level of expressed mRNA in the absence of chemical substance (yeast gene YLR327C): 0.8 | The level of expressed mRNA in the presence of chemical substance/The level of expressed mRNA in the absence of chemical substance (yeast gene YLR356W): 2.8 | The level of expressed mRNA in the presence of chemical substance/The level of expressed mRNA in the absence of chemical substance (yeast gene YLR362W): 1.3 | The level of expressed mRNA in the presence of chemical substance/The level of expressed mRNA in the absence of chemical substance (yeast gene YLR391W): 3.9 | The level of expressed mRNA in the presence of chemical substance/The level of expressed mRNA in the absence of chemical substance (yeast gene YMR004W): 1.3 | The level of expressed mRNA in the presence of chemical substance/The level of expressed mRNA in the absence of chemical substance (yeast gene YMR051C): 1.7 | The level of expressed mRNA in the presence of chemical substance/The level of expressed mRNA in the absence of chemical substance (yeast gene YMR139W): 0.9 | The level of expressed mRNA in the presence of chemical substance/The level of expressed mRNA in the absence of chemical substance (yeast gene YMR219W): 1.7 | The level of expressed mRNA in the presence of chemical substance/The level of expressed mRNA in the absence of chemical substance (yeast gene YMR226C): 2.0 | The level of expressed mRNA in the presence of chemical substance/The level of expressed mRNA in the absence of chemical substance (yeast gene YMR275C): 1.7 | The level of expressed mRNA in the presence of chemical substance/The level of expressed mRNA in the absence of chemical substance (yeast gene YMR276W): 3.3 | The level of expressed mRNA in the presence of chemical substance/The level of expressed mRNA in the absence of chemical substance (yeast gene YNL006W): 0.7 | The level of expressed mRNA in the presence of chemical substance/The level of expressed mRNA in the absence of chemical substance (yeast gene YNL007C): 0.8 | The level of expressed mRNA in the presence of chemical substance/The level of expressed mRNA in the absence of chemical substance (yeast gene YNL015W): 1.4 | The level of expressed mRNA in the presence of chemical substance/The level of expressed mRNA in the absence of chemical substance (yeast gene YNL214W): 0.9 | The level of expressed mRNA in the presence of chemical substance/The level of expressed mRNA in the absence of chemical substance (yeast gene YNL333W): 1.0 | The level of expressed mRNA in the presence of chemical substance/The level of expressed mRNA in the absence of chemical substance (yeast gene YNR010W): 0.8 | The level of expressed mRNA in the presence of chemical substance/The level of expressed mRNA in the absence of chemical substance (yeast gene YNR069C): 1.0 | The level of expressed mRNA in the presence of chemical substance/The level of expressed mRNA in the absence of chemical substance (yeast gene YOL013C): 2.7 | The level of expressed mRNA in the presence of chemical substance/The level of expressed mRNA in the absence of chemical substance (yeast gene YOL164W): 1.0 | The level of expressed mRNA in the presence of chemical substance/The level of expressed mRNA in the absence of chemical substance (yeast gene YOR117W): 1.4 | The level of expressed mRNA in the presence of chemical substance/The level of expressed mRNA in the absence of chemical substance (yeast gene YOR124C): 1.3 | The level of expressed mRNA in the presence of chemical substance/The level of expressed mRNA in the absence of chemical substance (yeast gene YOR132W): 1.5 | The level of expressed mRNA in the presence of chemical substance/The level of expressed mRNA in the absence of chemical substance (yeast gene YOR157C): 1.9 | The level of expressed mRNA in the presence of chemical substance/The level of expressed mRNA in the absence of chemical substance (yeast gene YOR165W): 0.8 | The level of expressed mRNA in the presence of chemical substance/The level of expressed mRNA in the absence of chemical substance (yeast gene YOR181W): 3.4 | The level of expressed mRNA in the presence of chemical substance/The level of expressed mRNA in the absence of chemical substance (yeast gene YOR185C): 1.0 | The level of expressed mRNA in the presence of chemical substance/The level of expressed mRNA in the absence of chemical substance (yeast gene YOR198C): 3.8 | The level of expressed mRNA in the presence of chemical substance/The level of expressed mRNA in the absence of chemical substance (yeast gene YOR259C): 1.3 | The level of expressed mRNA in the presence of chemical substance/The level of expressed mRNA in the absence of chemical substance (yeast gene YOR261C): 1.3 | The level of expressed mRNA in the presence of chemical substance/The level of expressed mRNA in the absence of chemical substance (yeast gene YOR285W): 2.0 | The level of expressed mRNA in the presence of chemical substance/The level of expressed mRNA in the absence of chemical substance (yeast gene YOR288C): 1.8 | The level of expressed mRNA in the presence of chemical substance/The level of expressed mRNA in the absence of chemical substance (yeast gene YOR355W): 3.2 | The level of expressed mRNA in the presence of chemical substance/The level of expressed mRNA in the absence of chemical substance (yeast gene YPL018W): 0.9 | The level of expressed mRNA in the presence of chemical substance/The level of expressed mRNA in the absence of chemical substance (yeast gene YPL089C): 2.6 | The level of expressed mRNA in the presence of chemical substance/The level of expressed mRNA in the absence of chemical substance (yeast gene YPL109C): 1.3 | The level of expressed mRNA in the presence of chemical substance/The level of expressed mRNA in the absence of chemical substance (yeast gene YPL149W): 0.8 | The level of expressed mRNA in the presence of chemical substance/The level of expressed mRNA in the absence of chemical substance (yeast gene YPL154C): 4.0 | The level of expressed mRNA in the presence of chemical substance/The level of expressed mRNA in the absence of chemical substance (yeast gene YPR073C): 0.8 | The level of expressed mRNA in the presence of chemical substance/The level of expressed mRNA in the absence of chemical substance (yeast gene YPR103W): 1.0 | The level of expressed mRNA in the presence of chemical substance/The level of expressed mRNA in the absence of chemical substance (yeast gene YPR108W): 1.3
